# Data from US20250339434A1, “TREATING NEUROLOGIC DISEASES” (priority 2024, published 2025).
# Several values for one entry are separate records, joined by “and”; a condition that tells them apart may be missing. Equal entries are not always repeated. Entries after “also recorded” stand apart in the source; their conditions may differ. Marks after values point to notes of the source that are not given here.
# What was measured:
# individuals with ASD [1] = conditions: cited from earlier work
# patients with ASD [2] = assay: ABC scores in patients with ASD tested for FRAAs and sFBPs: effect of leucovorin and concurrent treatments; format: in vivo, human; conditions: for Effect on ABC Hyperactivity: concurrent treatments
# Description: (§1) In other tests, many patients with ASD were tested for FRAAs and sFBPs to guide clinical management by identifying the clinical characteristics associated with these biomarkers and to determine whether the biomarkers could predict treatment response.
# (§2) The following two tables indicate some treatments and a statistically significant effect of concurrent treatments. β indicates an effectiveness on a certain outcome measure. In Table 2 and 3, a negative value for beta indicates a positive result.
# patients with ASD [3] = assay: SRS scores in patients with ASD tested for FRAAs and sFBPs: effect of leucovorin and concurrent treatments; format: in vivo, human; conditions: for Association of concurrent treatment with SRS scores: concurrent treatments
# Description: as §1
# This is due to two opposing effects. It appears that those with higher binding FRAAs that were not treated with leucovorin had more severe ASD symptoms than those with low binding FRAA titers. In contrast, those with higher FRAA titers who were treated with leucovorin appear to have less severe ASD symptoms than those that were treated and had lower binding FRAA titers. […] Those patients with some of the highest binding FRAA titers can have, on average, a eight-to-sixteen point favorable response on SRS subscales, an amount that can move them into more favorable severity categories.
# FIGS. 8A-E are a collection of five charts illustrating results of factoring in a titer of binding autoantibody with the folate treatment when applied to several patients, where the results are shown on a Social Responsiveness Scale.
# as §2
# [4] = tested on: sFBP positive human subjects (patients) with ASD; assay: Social Responsiveness Scale (SRS) scores before and after leucovorin in sFBP positive patients; format: in vivo
# Description: Turning now to FIGS. 2A-F, six figures indicate results of treatments when using the process (100) of FIG. 1. In sFBP positive human subjects (patients) started on the standard dose of leucovorin (25 mg twice a day) but in 6 of 12 (50%), the dose of leucovorin was increased to 50 mg twice a day in order to obtain an effective response as judged by the ongoing clinical evaluation. The number of days treated with leucovorin ranged from 92 to 1022 days with an average (SD) number of 584 (333) days of treatment. The graphs of FIGS. 2A-F illustrate the patients' responses using a Social Responsiveness Scale (SRS, which is known in the field, so will not be explained in detail herein). The difference in SRS scores was compared before and after the start of leucovorin treatment. The Total score decreased by 7.4 (1.4) t-score points with leucovorin treatment [F(1,44.6)=28.03, p<0.001, Cohen's d′=1.4]. The Awareness subscale decreased by 8.0 (1.9) t-score points with leucovorin treatment [F(1,45.9)=18.01, p<0.001, Cohen's d′=1.1]. The Cognition subscale decreased by 8.5 (1.8) t-score points with leucovorin treatment [F(1,45.4)=21.64, p<0.001, Cohen's d′=1.2]. The Communication subscale decreased by 8.9 (1.6) t-score points with leucovorin treatment [F(1,44.6)=31.22, p<0.001, Cohen's d′=1.4]. The Motivation subscale decreased by 6.9 (2.1) t-score points with leucovorin treatment [F(1,44.8)=10.91, p<0.01, Cohen's d′=0.9]. The Mannerisms subscale decreased by 4.3 (1.9) t-score points with leucovorin treatment [F(1,45.0)=[…], p=0.03, Cohen's d′=0.6]. To determine an estimate of the timing of the effect of leucovorin treatment, linear regression models were used to determine the change in SRS scores with each day of leucovorin treatment, as shown in FIGS. 2A-F. The Total score decreased by 0.01 (0.002) t-score points per day on leucovorin [F(1,46.6)=25.68, p<0.001]. The Awareness subscale decreased by 0.014 (0.003) t-score points per day on leucovorin [F(1,47.2)=19.74, p<0.001]. The Cognition subscale decreased by 0.013 (0.003) t-score points per day on leucovorin [F(1,47.4)=17.49, p<0.001]. The Communication subscale decreased by 0.013 (0.003) t-score points per day on leucovorin [F(1,46.2)=21.48, p<0.001]. The Motivation subscale decreased by 0.01 (0.004) t-score points per day on leucovorin [F(1,46.1)=8.27, p<0.01]. The Mannerisms subscale decreased by 0.008 (0.003) t-score points per day on leucovorin [F(1,46.2)=6.34, p=0.02].
# individuals with ASD [5] = assay: Safety and tolerability in individuals with ASD; format: in vivo, human; conditions: vulnerable population (ASD)
# [6] = cited from earlier work
# [7] = tested on: sFBP positive human subjects (patients) with ASD; assay: Aberrant Behavior Checklist (ABC) scores before and after leucovorin in sFBP positive patients; format: in vivo
# Source text: FIGS. 3A-F includes six charts that indicate results of treatments when using the process (100) of FIG. 1 using the Aberrant Behavioral Checklist (ABC, which is known in the field, so will not be explained in detail herein). The patients are the same as the patients in FIGS. 2A-F. Note that the scores/scales are different in FIGS. 3A-F, but the patients are the same and measured over the same time period as FIGS. 2A-F. The difference in ABC scores was compared before and after the start of leucovorin treatment. The Total score decreased by 20.2 (5.9) raw points with leucovorin treatment [F(1,44.8)=11.92, p=0.001, Cohen's d′=0.9]. The Irritability subscale decreased by 5.7 (2.1) raw points with leucovorin treatment [F(1,44.8)=7.56, p<0.01, Cohen's d′=0.6]. […] The Stereotypy subscale decreased by 2.2 (1.0) raw points with leucovorin treatment [F(1,46.4)=4.56, p<0.05, Cohen's d′=0.5]. The Hyperactivity subscale decreased by 6.8 (1.6) raw points with leucovorin treatment [F(1,43.8)=18.34, p<0.001, Cohen's d′=1.1]. […] To get an estimate of the timing of the effect of leucovorin treatment, linear regression models were used to determine the change in ABC scores with each day of leucovorin treatment, as shown in FIGS. 3A-F. The Total score decreased by 0.04 (0.01) raw points per day on leucovorin [F(1,46.3)=12.67, p=0.001]. The Irritability subscale decreased by 0.008 (0.004) raw points per day on leucovorin [F(1,46.5)=5.33, p<0.05]. The Social-Withdrawal subscale decreased by 0.01 (0.003) raw points per day on leucovorin [F(1,44.9)=13.85, p<0.001]. The Stereotypy subscale decreased by 0.004 (0.002) raw points per day on leucovorin [F(1,48.1)=6.17, p<0.05]. The Hyperactivity subscale decreased by 0.01 (0.003) raw points per day on leucovorin [F(1,44.6)=20.56, p<0.001].
# [8] = effect of concurrent treatment, negative beta = positive result
# [9] = effect size, before vs after leucovorin
# [10] = sFBP positive patients, before vs after start of leucovorin
structure (smiles),measurement,setting,value
C[N+](C)(C)CC(O)CC(=O)[O-] (centres unmarked) [Carnitine],Effect on core ASD symptoms in two DBPC studies,individuals with ASD [1],improve core ASD symptoms
same,Effect on ABC Hyperactivity,patients with ASD [2],improve ABC Hyperactivity
same,Effect on ABC Hyperactivity,patients with ASD [2]; listed as carnitine,better score on ABC Hyperactivity
same,"β, SRS Motivation",patients with ASD [3]; [8],−2.3 (1.0)*
"Nc1nc2c(c(=O)[nH]1)N(C=O)C(CNc1ccc(C(=O)N[C@@H](CCC(=O)O)C(=O)O)cc1)CN2 (mixture of isomers) [leucovorin, folinic acid]","Cohen's d′, SRS Awareness subscale",[4]; [9],1.1
same,"Cohen's d′, SRS Cognition subscale",[4]; [9],1.2
same,"Cohen's d′, SRS Communication subscale",[4]; [9],1.4
same,"Cohen's d′, SRS Mannerisms subscale",[4]; [9],0.6
same,"Cohen's d′, SRS Motivation subscale",[4]; [9],0.9
same,"Cohen's d′, SRS Total score",[4]; [9],1.4
same,Duration of treatment necessary for the 7-point improvement in the SRS,[4]; individuals positive for sFBPs,two years
same,SRS Awareness subscale decrease per day on leucovorin,[4]; linear regression model,0.014 (0.003) t-score points per day
same,SRS Cognition subscale decrease per day on leucovorin,[4]; linear regression model,0.013 (0.003) t-score points per day
same,SRS Communication subscale decrease per day on leucovorin,[4]; linear regression model,0.013 (0.003) t-score points per day
same,SRS Mannerisms subscale decrease per day on leucovorin,[4]; linear regression model,0.008 (0.003) t-score points per day
same,SRS Motivation subscale decrease per day on leucovorin,[4]; linear regression model,0.01 (0.004) t-score points per day
same,SRS Total score decrease per day on leucovorin,[4]; linear regression model,0.01 (0.002) t-score points per day
same,SRS score decrease with leucovorin (summary),[4]; sFBP positive patients,about 7 points
same,SRS Total score decrease with leucovorin treatment,"[4]; sFBP positive patients (12), before vs after start of leucovorin 25 or 50 mg twice a day, 92 to 1022 days, value (spread)",7.4 (1.4) t-score points
same,SRS Awareness subscale decrease with leucovorin treatment,[4]; [10],8.0 (1.9) t-score points
same,SRS Cognition subscale decrease with leucovorin treatment,[4]; [10],8.5 (1.8) t-score points
same,SRS Communication subscale decrease with leucovorin treatment,[4]; [10],8.9 (1.6) t-score points
same,SRS Mannerisms subscale decrease with leucovorin treatment,[4]; [10],4.3 (1.9) t-score points
same,SRS Motivation subscale decrease with leucovorin treatment,[4]; [10],6.9 (2.1) t-score points
same,Effect on ABC Irritability,patients with ASD [2],only improved Irritability; also recorded: overall improving irritability
same,Safety and tolerability,individuals with ASD [5],extremely safe and well-tolerated
same,Absorption following oral administration,[6],rapidly absorbed
same,"Cohen's d′, ABC Hyperactivity subscale",[7]; [9],1.1
same,"Cohen's d′, ABC Irritability subscale",[7]; [9],0.6
same,"Cohen's d′, ABC Social Withdrawal subscale",[7]; [9],0.9
same,"Cohen's d′, ABC Stereotypy subscale",[7]; [9],0.5
same,"Cohen's d′, ABC Total score",[7]; [9],0.9
same,Duration of treatment required for the 5.7 improvement in irritability on the ABC,[7]; individuals positive for sFBPs,two years
same,ABC Hyperactivity subscale decrease per day on leucovorin,[7]; linear regression model,0.01 (0.003) raw points per day
same,ABC Inappropriate Speech subscale change per day on leucovorin,[7]; linear regression model,did not change significantly
same,ABC Irritability subscale decrease per day on leucovorin,[7]; linear regression model,0.008 (0.004) raw points per day
same,ABC Social-Withdrawal subscale decrease per day on leucovorin,[7]; linear regression model,0.01 (0.003) raw points per day
same,ABC Stereotypy subscale decrease per day on leucovorin,[7]; linear regression model,0.004 (0.002) raw points per day
same,ABC Total score decrease per day on leucovorin,[7]; linear regression model,0.04 (0.01) raw points per day
same,ABC Hyperactivity subscale decrease with leucovorin treatment,[7]; [10],6.8 (1.6) raw points
same,ABC Inappropriate Speech subscale change with leucovorin treatment,[7]; [10],did not change significantly
same,ABC Irritability subscale decrease with leucovorin treatment,[7]; [10],5.7 (2.1) raw points and 5.7 raw points
same,ABC Social Withdrawal subscale decrease with leucovorin treatment,[7]; [10],5.8 raw points
same,ABC Stereotypy subscale decrease with leucovorin treatment,[7]; [10],2.2 (1.0) raw points
same,ABC Total score decrease with leucovorin treatment,[7]; [10],20.2 (5.9) raw points
same,"SRS t-scores / ASD symptoms as binding FRAA titers increase, with leucovorin treatment",patients with ASD [3]; dependence on binding FRAA titer,less severe ASD symptoms when treated with leucovorin; also recorded: better (lower scores)
same,Favorable response on SRS subscales in patients with some of the highest binding FRAA titers,"patients with ASD [3]; on average, highest binding FRAA titers",eight-to-sixteen
same,Effect on core ASD symptoms,patients with ASD [3]; patients with ASD,improves core ASD symptoms
"C/C1=C2/[N-][C@H]([C@H](CC(N)=O)[C@@]2(C)CCC(=O)NC[C@@H](C)OP(=O)([O-])O[C@H]2[C@@H](O)[C@@H](n3cnc4cc(C)c(C)cc43)O[C@@H]2CO)[C@]2(C)N=C(/C(C)=C3N=C(/C=C4N=C1[C@@H](CCC(N)=O)C\4(C)C)[C@@H](CCC(N)=O)[C@]\3(C)CC(N)=O)[C@@H](CCC(N)=O)[C@]2(C)CC(N)=O.[CH3-].[Co+3] [mB12 SQ, Methyl-cobalamin]","β, SRS Cognition",patients with ASD [3]; [8],−4.3 (1.3)***
same,"β, SRS Motivation",patients with ASD [3]; [8],−3.2 (1.3)*
same,"β, SRS Total","patients with ASD [3]; effect of concurrent treatment, negative beta = positive result, value (spread)",−2.8 (1.1)**
same,Association of concurrent treatment with SRS scores,patients with ASD [3]; patients with ASD,"improve the SRS Total score, as well as all subscales except SRS Awareness"
same,Association of concurrent treatment with SRS scores,"patients with ASD [3]; patients with ASD, listed as mB12 Subcutaneous",better SRS scores on a few subscales
